Patent US20240335431A1, “1-H-PYRROLO[2,3-c]PYRIDINE COMPOUNDS” (Acerta Pharma B.V., priority 2023, published 2024)

Tests used:
HEL cells = assay: Proliferation assay, HEL control cell line (CellTiter-Glo, 7 days); type: cell-based, human; conditions: Homo sapiens, HEL, 168 h
How it was run: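 Cells seeded at 125 (MOLM-13), 300 (MV4;11), 75 (OCI-AML3) or 200 (HEL) per well were exposed to 3.16-fold compound dilutions (0.1% DMSO) for 7 days at 37° C. Viability by CellTiter-Glo luminescence, normalized to DMSO (100%) and day-0 plate (0%); IC50 from one-site dose-response fit.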

[1] = Human hepatocyte intrinsic clearance assay; type: in vitro ADME; conditions: human hepatocytes
How it was run: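 Pooled 10-donor cryopreserved human hepatocytes in suspension (0.25×10^6 cells in 0.25 mL) incubated with test compound at […], 37° C. Samples taken 0.5–120 min and quenched in acetonitrile, parent remaining measured by LC-MS/MS. CLint ([…]) derived from slope of ln % remaining vs time.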

SMILES	IC50 (HEL cells) [µM]	HH CLint [1] [μl/min/1E6]
CC(C)c1ncncc1-c1cc(F)ccc1-n1cc(C(=O)C2CCN(C(=O)[C@H]3N[C@@H]4CC[C@H]3C4)CC2)c2ccncc21 [Example 37, (1-((1R,3S,4S)-2-Azabicyclo[2.2.1]heptane-3-carbonyl)piperidin-4-yl)(1-(4-fluoro-2-(4-isopropylpyrimidin-5-yl)phenyl)-1H-pyrrolo[2,3-c]pyridin-3-yl)methanone]	> 10	<1.0
Cc1c(C(=O)C2CCN(C(=O)[C@H]3NC[C@@H]4C[C@@H]43)CC2)c2ccncc2n1-c1ccc(F)cc1-c1cnccc1C(C)C [Example 54, (1-((1S,2S,5R)-3-Azabicyclo[3.1.0]hexane-2-carbonyl)piperidin-4-yl)(1-(4-fluoro-2-(4-isopropylpyridin-3-yl)phenyl)-2-methyl-1H-pyrrolo[2,3-c]pyridin-3-yl)methanone]	> 10	6.4
CC(C)N(C(=O)c1cc(F)ccc1-n1cc(C(=O)[C@H]2CCN(C(=O)[C@H]3N[C@@H]4CC[C@H]3C4)C2)c2ccncc21)C(C)C [Example 2, 2-(3-((S)-1-((1R,3S,4S)-2-Azabicyclo[2.2.1]heptane-3-carbonyl)pyrrolidine-3-carbonyl)-1H-pyrrolo[2,3-c]pyridin-1-yl)-5-fluoro-N,N-diisopropylbenzamide]	> 10	<1.0
